Data set [1] has as its target T1, HMG-CoA reductase (Rattus norvegicus, UniProt P51639).
T1 construct: from tissue; host or cells: rat liver microsomes, crude soluble extract
T1 sequence (P51639 1-887): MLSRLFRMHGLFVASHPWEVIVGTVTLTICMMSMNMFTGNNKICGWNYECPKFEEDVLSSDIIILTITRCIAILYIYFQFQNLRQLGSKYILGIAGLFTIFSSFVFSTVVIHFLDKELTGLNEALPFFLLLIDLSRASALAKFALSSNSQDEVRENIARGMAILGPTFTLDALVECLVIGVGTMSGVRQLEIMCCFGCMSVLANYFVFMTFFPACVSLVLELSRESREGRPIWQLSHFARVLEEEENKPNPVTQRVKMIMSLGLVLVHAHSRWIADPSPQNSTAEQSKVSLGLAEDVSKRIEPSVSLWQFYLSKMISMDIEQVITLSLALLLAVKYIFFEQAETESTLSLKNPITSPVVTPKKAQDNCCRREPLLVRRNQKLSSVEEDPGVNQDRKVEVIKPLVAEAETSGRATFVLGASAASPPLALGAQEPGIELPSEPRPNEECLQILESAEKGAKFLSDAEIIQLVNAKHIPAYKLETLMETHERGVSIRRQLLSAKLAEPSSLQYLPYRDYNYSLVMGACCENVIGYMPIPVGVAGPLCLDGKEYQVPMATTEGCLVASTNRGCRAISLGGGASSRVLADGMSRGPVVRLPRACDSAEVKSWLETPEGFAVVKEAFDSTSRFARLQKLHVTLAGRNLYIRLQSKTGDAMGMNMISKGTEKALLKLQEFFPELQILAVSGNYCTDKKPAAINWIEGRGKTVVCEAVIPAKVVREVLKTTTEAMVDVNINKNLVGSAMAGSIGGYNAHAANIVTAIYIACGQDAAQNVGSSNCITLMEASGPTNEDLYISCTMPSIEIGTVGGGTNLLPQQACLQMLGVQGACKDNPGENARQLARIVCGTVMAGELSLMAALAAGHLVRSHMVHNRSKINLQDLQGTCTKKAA
Put plainly: HMG-CoA reductase activity in crude soluble extract of rat liver microsomes. The format is biochemical. As to conditions: for HMG-CoA reductase activity: 1.98 without inhibitor. Here is the method:
Crude soluble extract from rat liver microsomes was prepared as previously described (2). HMG-CoA reductase activity and incubation conditions were conducted as previously described (2,3).
The relative potencies, as HMG-CoA reductase inhibitors, of trifluoro-HMG-CoA, trifluoro-HMG and trifluoro-HMG anhydride were investigated.
The inhibition of HMG-CoA reductase activity was measured in crude soluble extract from rat liver microsomes. Crude soluble extract from rat liver microsomes was prepared as previously described (2). HMG-CoA reductase activity and incubation conditions were conducted as previously described (2,3). The HMG-CoA reductase activity of the crude soluble extract in the absence of inhibitor was considered as 100% and activities measured in the presence of inhibitors were compared to this norm.
On the technique in general: Liver microsomes are vesicles of endoplasmic reticulum, rich in cytochrome P450 enzymes.

In data set [2] the test system is incorporation of [1-^14 C] acetate into cholesterol (nonsaponifiable extract) in intact rat liver cells. Put plainly: Incorporation of [1-^14 C] acetate into cholesterol (nonsaponifiable extract) in intact liver cells. It is filed as cell-based. Here is the method:
Duplicate samples contained 3.7 ml of hepatocyte suspension and 0.28 ml of saturated KHCO3 (pH […]) which contained varying final concentrations (0, 0.01, 0.10 or 1.0 mM) of trifluoro-HMG-CoA. Preincubation was conducted for 60 minutes. 10 μCi of [1-^14 C] sodium acetate, dissolved in Krebs Ringer bicarbonate buffer, was then added to each sample. Incubation was conducted for 120 minutes in a Dubnoff shaker. Saponification and extraction were conducted as previously described (4).

For data set [3], the target named is T2, rat liver microsomal HMG-CoA reductase (Rattus norvegicus, UniProt P51639).
T2 construct: rat liver microsomal HMG-CoA reductase; from tissue; host or cells: rat liver microsomes
T2 sequence (P51639 1-887): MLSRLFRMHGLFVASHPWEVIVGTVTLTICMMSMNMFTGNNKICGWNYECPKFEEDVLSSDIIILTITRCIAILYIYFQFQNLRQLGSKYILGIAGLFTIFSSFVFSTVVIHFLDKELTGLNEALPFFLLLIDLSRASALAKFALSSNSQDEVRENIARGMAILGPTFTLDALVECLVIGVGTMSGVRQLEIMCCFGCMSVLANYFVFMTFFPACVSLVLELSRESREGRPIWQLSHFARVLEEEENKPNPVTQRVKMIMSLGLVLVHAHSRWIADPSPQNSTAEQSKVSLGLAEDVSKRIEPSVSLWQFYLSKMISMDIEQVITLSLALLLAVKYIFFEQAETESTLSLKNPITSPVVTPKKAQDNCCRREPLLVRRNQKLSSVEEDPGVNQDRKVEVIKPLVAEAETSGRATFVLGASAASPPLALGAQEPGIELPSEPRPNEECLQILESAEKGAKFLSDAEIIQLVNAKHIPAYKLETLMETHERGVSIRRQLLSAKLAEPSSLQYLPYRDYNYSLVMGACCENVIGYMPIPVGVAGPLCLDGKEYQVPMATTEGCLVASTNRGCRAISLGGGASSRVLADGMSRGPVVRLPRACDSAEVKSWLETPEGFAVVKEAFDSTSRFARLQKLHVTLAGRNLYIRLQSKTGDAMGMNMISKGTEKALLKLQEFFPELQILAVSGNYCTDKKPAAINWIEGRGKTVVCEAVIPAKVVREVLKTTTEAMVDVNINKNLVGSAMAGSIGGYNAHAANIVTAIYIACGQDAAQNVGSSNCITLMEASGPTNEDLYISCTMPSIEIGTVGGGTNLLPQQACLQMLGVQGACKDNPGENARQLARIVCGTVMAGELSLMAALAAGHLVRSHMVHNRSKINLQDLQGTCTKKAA
Nature of the data set: Kinetics of inhibition of rat liver microsomal HMG-CoA reductase. It is filed as biochemical. The protocol: Table III summarizes the results of an experiment in which the kinetics of inhibition of rat liver microsomal HMG-CoA reductase by trifluoro-HMG-CoA were measured.
The velocity of mevalonate formation was first measured in the absence of trifluoro-HMG-CoA, varying the concentration of the substrate [3-^14 C]HMG-CoA. Then the same experiment was conducted in the presence of trifluoro-HMG-CoA (600 μM). The data were analyzed by means of an Eadie-Hofstee plot.

A short description of data set [4]: Total body weights and liver weights of treated and control rats. It is filed as in vivo, rat. The conditions noted are these: 0.2 mg per intraperitoneal injection, 6 days. The protocol: (§1) Control rats received an injection of the vehicle (KHCO3 buffer) used for trifluoro-HMG-CoAinjection. Liver microsomes were isolated from these animals, and HMG-CoA reductase activity was measured. The control group average HMG-CoA reductase specific activity was 1.25 nmol mevalonate formed/min/mg protein. […] This difference was statistically significant at the p=0.005 level.
(§2) Twelve male rats of identical age were used. Six rats served as the control group; these rats received an intraperitoneal injection of KHCO3 buffer (0.2 ml) once per day (3:00 pm) for six days, except on the final day when additional injections were given at 10:00 pm and 6:00 am the following day. The drug-treated group of six rats received intraperitoneal injections of trifluoro-HMG-CoA (0.2 mg) in KHCO3 buffer (0.2 ml) on the same schedule as described above for the control group. The data were further analyzed by the t statistic between the mean for each group.

Data set [5] deals with T1, HMG-CoA reductase. Nature of the data set: Liver microsomal HMG-CoA reductase activity in rats treated with trifluoro-HMG-CoA. The format is in vivo. The conditions noted are these: 0.2 mg per intraperitoneal injection, 6 days. The protocol: as §1, §2
In data set [6] the target is T1, HMG-CoA reductase. Nature of the data set: Inhibition of purified HMG-CoA reductase. As to conditions: 1.1 mM, purified enzyme. The format is biochemical. Here is the method:
Hmg-coA reductase was purified from rat liver microsomes as previously described (2). HMG-CoA reductase activity assay and incubation conditions were conducted as previously described (2,3).

Substrate in data set [7]: CC(O)(CC(=O)O)CC(=O)SCCNC(=O)CCNC(=O)[C@H](O)C(C)(C)COP(=O)(O)OP(=O)(O)OC[C@H]1O[C@@H](n2cnc3c(N)ncnc32)[C@H](O)[C@@H]1OP(=O)(O)O
Nature of the data set: cells, lysate or membranes named. The conditions noted are these: other: absence of trifluoro-HMG-CoA; Eadie-Hofstee plot.

The mark [8] stands for this setting: 1 mM, crude soluble extract, relative potencies (Table VI), read-out: Inhibition of HMG-CoA reductase activity.

Results on 4 molecules are retold here after patent US4169944A, “Cholesterol biosynthesis inhibitors” (University Patents, Inc., priority 1977, dated 1979).

For orientation: inhibition means the relative decrease from the control value, in per cent. What is called Ki is the dissociation constant of the complex between target and ligand, obtained from inhibition or displacement. Lower therefore signals higher affinity. Usually Km stands for the concentration of substrate that gives half-maximal velocity.

Where “and” joins values, the source holds several entries; their conditions need not be identical. Equal entries are not always repeated. Where two headings read alike, the source gives them in different places.

Take `O=C(O)CC(O)(CC(=O)O)C(F)(F)F` [Trifluoro-HMG, 3-Hydroxy-3-Trifluoromethylglutaric Acid]: the inhibition at 1000 µM on HMG-CoA reductase [1] (setting [8]) was found to be 11%.

For the molecule `O=C1CC(O)(C(F)(F)F)CC(=O)O1` [Trifluoro-HMG-anhydride, 3-Hydroxy-3-Trifluoromethylglutaric Anhydride], at HMG-CoA reductase [1] (setting [8]), the inhibition at 1000 µM amounted to 27%.

With `CC(C)(COP(=O)(O)OP(=O)(O)OC[C@H]1O[C@@H](n2cnc3c(N)ncnc32)[C@H](O)[C@@H]1OP(=O)(O)O)[C@@H](O)C(=O)NCCC(=O)NCCSC(=O)CC(O)(CC(=O)O)C(F)(F)F` (stereo partly drawn) [Trifluoro-HMG-CoA, 3-Hydroxy-3-Trifluoromethylglutaryl-Coenzyme A], the inhibition at 10 µM in data set [2] (Rattus norvegicus, 0.01 mM, preincubation 60 minutes, incubation 120 minutes) turned out to be 34%; on HMG-CoA reductase [1] (0.01 mM, crude soluble extract), 7%. Further, the inhibition at 100 µM in data set [2] (Rattus norvegicus, 0.10 mM, preincubation 60 minutes, incubation 120 minutes) is 67%; on HMG-CoA reductase [1] (0.10 mM, crude soluble extract), 35%. The inhibition at 1000 µM in data set [2] (Rattus norvegicus, 1.00 mM, preincubation 60 minutes, incubation 120 minutes) was 88%; on HMG-CoA reductase [1] (1.00 mM, crude soluble extract (Table I), read-out: Inhibition), 78%; at HMG-CoA reductase [1] (setting [8]) it was 78%. For the same molecule, the IC50 in data set [2] (Rattus norvegicus, calculated from the Table IV experiment, intact liver cells, read-out: Concentration for 50% inhibition of cholesterol formation) is roughly 40 µM. Moreover, the “Inhibition of cholesterol formation (in words)” value in data set [2] (concentrations as low as 0.01 mM) is “significant inhibition of cholesterol formation”. The HMG-CoA reductase activity on HMG-CoA reductase [1] (0.01 mM, crude soluble extract) is listed as 1.85 nmol mevalonate formed/min/ml; at HMG-CoA reductase [1] (0.10 mM, crude soluble extract), 1.29 nmol mevalonate formed/min/ml; at HMG-CoA reductase [1] (1.00 mM, crude soluble extract), 0.44 nmol mevalonate formed/min/ml. Further, on HMG-CoA reductase [1] (1 mM, crude soluble extract), the “Relative potency versus the free acid [3-hydroxy-3-trifluoromethylglutaric acid]” value is “substantially more potent inhibitor than the free acid”. Besides, the “Inhibition (in words)” value at HMG-CoA reductase [1] (0.1 and 1.0 mM, crude soluble extract) is on record as “significant inhibition”. The Ki in data set [3] (rat liver microsomes, substrate HMG-CoA, Eadie-Hofstee plot) came to 54 µM. The Inhibition type result in data set [3] (versus natural substrate HMG-CoA) is “competitive inhibitor”. For the same molecule, in data set [4], the “Total body weights and liver weights, treated versus control group” value is recorded as “not significantly different”. At HMG-CoA reductase [5] (average of six rats, control average 1.25, p=0.005), the “HMG-CoA reductase specific activity, average of treated rats” value is on record as 0.63 nmol mevalonate formed/min/mg protein. The “HMG-CoA reductase specific activity, individual treated rats” value at HMG-CoA reductase [5] (individual rat) was 0.42 nmol mevalonate formed/min/mg protein and 0.59 nmol mevalonate formed/min/mg protein and 0.83 nmol mevalonate formed/min/mg protein and 0.58 nmol mevalonate formed/min/mg protein and 0.95 nmol mevalonate formed/min/mg protein and 0.40 nmol mevalonate formed/min/mg protein. The molecule further returned an inhibition at 1100 µM against HMG-CoA reductase [6] of 73%. The “HMG-CoA reductase specific activity” value on HMG-CoA reductase [6] (931.9 without inhibitor) is 253.5 nmol mevalonate formed/min/mg.

B1: rat liver microsomal HMG-CoA reductase (Rattus norvegicus) (protein)
chain: MLSRLFRMHGLFVASHPWEVIVGTVTLTICMMSMNMFTGNNKICGWNYECPKFEEDVLSSDIIILTITRCIAILYIYFQFQNLRQLGSKYILGIAGLFTIFSSFVFSTVVIHFLDKELTGLNEALPFFLLLIDLSRASALAKFALSSNSQDEVRENIARGMAILGPTFTLDALVECLVIGVGTMSGVRQLEIMCCFGCMSVLANYFVFMTFFPACVSLVLELSRESREGRPIWQLSHFARVLEEEENKPNPVTQRVKMIMSLGLVLVHAHSRWIADPSPQNSTAEQSKVSLGLAEDVSKRIEPSVSLWQFYLSKMISMDIEQVITLSLALLLAVKYIFFEQAETESTLSLKNPITSPVVTPKKAQDNCCRREPLLVRRNQKLSSVEEDPGVNQDRKVEVIKPLVAEAETSGRATFVLGASAASPPLALGAQEPGIELPSEPRPNEECLQILESAEKGAKFLSDAEIIQLVNAKHIPAYKLETLMETHERGVSIRRQLLSAKLAEPSSLQYLPYRDYNYSLVMGACCENVIGYMPIPVGVAGPLCLDGKEYQVPMATTEGCLVASTNRGCRAISLGGGASSRVLADGMSRGPVVRLPRACDSAEVKSWLETPEGFAVVKEAFDSTSRFARLQKLHVTLAGRNLYIRLQSKTGDAMGMNMISKGTEKALLKLQEFFPELQILAVSGNYCTDKKPAAINWIEGRGKTVVCEAVIPAKVVREVLKTTTEAMVDVNINKNLVGSAMAGSIGGYNAHAANIVTAIYIACGQDAAQNVGSSNCITLMEASGPTNEDLYISCTMPSIEIGTVGGGTNLLPQQACLQMLGVQGACKDNPGENARQLARIVCGTVMAGELSLMAALAAGHLVRSHMVHNRSKINLQDLQGTCTKKAA
With B1, the Km in data set [7] amounted to 34.5 µM.
